According to US20240408211A1, “COMPOSITIONS AND METHODS OF AMELIORATING AVERSIVENESS OF AVERSIVE STIMULI BY INHIBITION OF PURINERGIC RECEPTORS” (Monell Chemical Senses Center, priority 2021, published 2024):
Where two headings read alike, the source gives them in different places.

What was measured:
[1] = tested on: C57BL/6J mice; test: Brief-exposure gustometer lick test after oral swabbing (or IP injection) of briefly anesthetized mice; assay type: in vivo, mouse
From the text: The methods were adapted from those described by Vandenbeuch et al [Vandenbeuch, A., et al., Postsynaptic P2X3-containing receptors in gustatory nerve fibres mediate responses to all taste qualities in mice. J Physiol 593:1113-1125; 2015] who, (a) in anesthetized mice, flowed AF-353 over the anterior tongue then recorded gustatory nerve responses to tastants [see also (Larson, E. D., et al., Function, innervation, and neurotransmitter signaling in mice lacking Type-II taste cells. eNeuro 7; 2020)] and (b), in awake mice, injected AF-353 intraperitoneally then measured licking for the sweetener SC-45647. Here, we applied AF-353 to the oral cavity of briefly anesthetized mice then measured licking using procedures similar to those of our past work [Med Associates inc. Products: Gustometry, med-associates.com/product/davis-rig-for-mouse-16-bottle/. 2022; Taruno, A., et al., CALHM1 ion channel mediates purinergic neurotransmission of sweet, bitter and umami tastes. Nature 495:223-226; 2013; Tordoff, M. G., et al., Normal taste acceptance and preference of PANX1 knockout mice. Chem. Senses 2015 May 18. pii: bjv025; 2015; Tordoff, M. G.; Aleman, T. R.; McCaughey, S. A. Heightened avidity for trisodium pyrophosphate in mice lacking Taslr3. Chem. Senses 40:53-59; 2014; Tordoff, M. G.; Ellis, H. T. Taste dysfunction in BTBR mice due to a mutation of Itpr3, the inositol triphosphate receptor 3 gene. Physiol. Genomics 45:834-855; 2013] and other investigators [Glendinning, J. I.; Gresack, J.; Spector, A. C. A high-throughput screening procedure for identifying mice with aberrant taste and oromotor function. Chem. Senses 27:461-474; 2002].
Groups of 16 male C57BL/6J mice aged 7 weeks old were purchased from The Jackson Laboratory (strain ID number 000664). They were maintained in a vivarium at 23° C. on a 12 h:12 h light/dark cycle, with lights off at 1800. When not being tested, mice were housed alone in plastic tub cages (26.5×17×12 cm) with a stainless-steel grid lid and wood chips scattered on the floor [see (Tordoff, M. G.; Bachmanov, A. A. Monell mouse taste phenotyping project. Monell Chemical Senses Center, monell.org/MMTPP. 2001) for details]. The mice ate pelleted chow (Teklad 8601) and drank deionized water according to the regimen described below. Each mouse was weighed daily, immediately before it was placed into a gustometer.
Brief-exposure taste acceptance was assessed using MS160-Mouse gustometers manufactured by DiLog Instruments (now available from Med Associates). Each gustometer consists of a 14.5×30×15 cm test chamber with a motorized shutter that controls access to a taste solution. Bottles of taste solution are mounted on a rack that is precisely positioned by a stepper motor so that any one of eight different taste solutions can be presented to the mouse. The drinking spout of each bottle is part of a high-frequency alternating current contact circuit, so that each lick the mouse makes is detected and recorded. Details of construction and other technical information are available elsewhere [Med Associates inc. Products: Gustometry, med-associates.com/product/davis-rig-for-mouse-16-bottle/. 2022; Sheridan, C. Merck stakes out ‘irritable’ neuron territory with $1.25 billion. Nature biotechnology 34:900; 2016].
To train the mice to sample taste solutions, they were first deprived of water for 22.5 h, and then placed into a gustometer with its shutter open. During this first training session, each mouse had continuous access to water for 30 min. It was then returned to its home cage and given water for 1 h. During the following two days, this procedure was repeated, except the shutter allowing access to water was closed 5 sec after each time the mouse began to lick, and was re-opened after a 7.5-sec interval. After 20 min, the mouse was returned to its home cage and given water for 1 h. By the second test using these procedures, nearly all mice had learned to obtain water during the 5-sec access periods. […]

[2] = cited from earlier work
[3] = tested on: P2X3/P2X2/3; conditions: cited from earlier work
[4] = solutions (2 mg/mL) and suspensions in acidic media; room temperature; cited from earlier work
[5] = tested on: rats; conditions: cited from earlier work
[6] = tested on: P2X3/P2X2/3 receptors on bladder afferent nerves; conditions: rats; cited from earlier work
[7] = tested on: nodose C-fiber; conditions: guinea pigs; cited from earlier work
[8] = tested on: chorda tympani nerve; conditions: cited from earlier work
[9] = intraperitoneal, cited from earlier work
[10] = tested on: mice; conditions: intraperitoneal administration; cited from earlier work
[11] = tested on: humans
Description: In some experiments, we used a regimen of two 1-minute rinses with 500 μM AF-353 composition (i.e., oral topical administration).
In this study, we tested an AF-353 composition in humans as an oral rinse after receiving IRB approval for its use. First, we tested rinsing 100 μM (0.04 mg/mL) orally for 2 minutes as 4×30 sec rinses with expectoration. We tested before and after sour, bitter, sweet, and salty solutions (quinine HCl, NaCl, Praziquantal, sucrose, CO2).
Next, we tested rinsing 500 μM (0.2 mg/mL) AF-353 for two minutes, in 2×1 min increment rinses with expectoration.

[12] = 0.3, 1 or 3 mM swabbed orally for 4 min versus vehicle
[13] = oral swabbing for 2, 4 or 8 min versus no swabbing

COc1cc(C(C)C)c(Oc2cnc(N)nc2N)cc1I [AF-353, 5-[5-iodo-4-methoxy-2-(1-methylethyl)phenoxy]-2,4-pyrimidinediamine]
licking for 1 mM QHCl, oral versus intraperitoneal administration of the same dose ([1]; 0.41 μmol/mouse): significantly more after AF-353 administered orally
licking for 1 mM QHCl versus DMSO vehicle ([1]; 0.41 μmol/mouse by oral swabbing or IP injection (either route)): licked significantly more
effect on licking for capsaicin (ANOVA) ([1]; 3 mM for 4 min): neither a main effect of AF-353 nor an AF-353× concentration interaction
licking of the hedonically positive tastant saccharin relative to DMSO vehicle ([1]; 3 mM for 4 min): licked less
licking of hedonically negative tastants relative to DMSO vehicle ([1]; 3 mM for 4 min, all (QHCl, urea, denatonium, SOA, Tenofovir Alafenamide, Praziquantel, Ferroquine, citric acid) except NaCl and capsaicin): licked more
licking for 1 mM QHCl after oral treatment versus either vehicle ([1]; 3 mM in DMSO or alcohol+Tween): licked significantly more
influence of the vehicle composition (DMSO or alcohol+Tween) on licking rates ([1]; 3 mM oral swab, water or 1 mM QHCl): did not influence licking rates
lick rates for 1 mM QHCl compared with deionized water ([1]; 3 mM swabbed orally for 4 min): statistically indistinguishable
licking after oral swabbing relative to oral swabbing with DMSO vehicle (FIG. 4A) ([1]; 3 mM, 0.41 μmol/mouse, route experiment): reduced licking
1 mM QHCl licking after 60-min interval relative to 10- and 30-min intervals ([1]; 3 mM, 4 min): significantly reduced
lick rates for 1 mM QHCl, 10-min versus 30-min swab-test interval ([1]; 3 mM, 4 min): no difference
effectiveness at 90 min after oral treatment ([1]; 3 mM, 4 min, 1 mM QHCl licking): completely dissipated
lick rates for water by swab-test interval ([1]; 3 mM, 4 min, interval 10, 30, 60 or 90 min): no effect
lick rate for 1 mM QHCl [1, 12]: concentration-related increase
lick rates for deionized water [1, 12]: no significant effects
Licks to water (mean ± SE licks made in 10-sec tests) ([1]; Capsaicin experiment, 3 mM oral swab): 50 ± 9
Licks to water (mean ± SE licks made in 10-sec tests) ([1]; Citric acid experiment, 3 mM oral swab): 44 ± 4
Licks to water (mean ± SE licks made in 10-sec tests) ([1]; Denatonium experiment, 3 mM oral swab): 53 ± 3
Licks to water (mean ± SE licks made in 10-sec tests) ([1]; Ferroquine experiment, 3 mM oral swab): 47 ± 3
Licks to water (mean ± SE licks made in 10-sec tests) ([1]; NaCl experiment, 3 mM oral swab): 57 ± 5
Licks to water (mean ± SE licks made in 10-sec tests) ([1]; Praziquantel experiment, 3 mM oral swab): 52 ± 3
Licks to water (mean ± SE licks made in 10-sec tests) ([1]; QHCl experiment, 3 mM oral swab): 56 ± 4
Licks to water (mean ± SE licks made in 10-sec tests) ([1]; Saccharin experiment, 3 mM oral swab): 14 ± 2
Licks to water (mean ± SE licks made in 10-sec tests) ([1]; Tenofovir experiment, 3 mM oral swab): 56 ± 2
Licks to water (mean ± SE licks made in 10-sec tests) ([1]; Urea experiment, 3 mM oral swab): 43 ± 5
lick rates for 1 mM QHCl [1, 13]: increased monotonically
lick rates for deionized water [1, 13]: reduced lick rates for deionized water significantly
half-life ([2]; in rat): 1.63 h
oral bioavailability ([2]; rat, in vivo, po): high
CNS penetration ([2]; rat, in vivo): good
P2X3/P2X2/3 antagonist potency [3]: high
physically and chemically stable for [4]: at least 4 weeks
pain caused by bone cancer [5]: attenuate
activity mediated by P2X3/P2X2/3 receptors on bladder afferent nerves [6]: counteracts
bronchoconstriction-induced nodose C-fiber discharge [7]: blocks
chorda tympani nerve responses elicited by orally applied taste stimuli ([8]; 1.0 or 1.1 mM flowed over the anterior tongue for 10 min, at 10 and 30 min after application): eliminated
chorda tympani nerve responses to all tastants ([8]; intraperitoneal injection, 6 mg/kg): abolished
decrease of chorda tympani nerve responses ([8]; intraperitoneal, 0.25 mg/kg): ~50%
plasma concentration ([9]; 0.25 mg/kg): 1.3 µM
plasma concentration ([9]; 6 mg/kg): 44 µM
preference for SC-45647 shown by vehicle-administered mice [10]: eliminated
intensity of sour, bitter, sweet and salty solutions after treatment (moderate before treatment) ([11]; 100 μM (0.04 mg/mL), 2 minutes as 4×30 sec rinses, four participants): mild
tastes after treatment ([11]; 500 μM (0.2 mg/mL), 2×1 min rinses with expectoration): eliminated
recovery from abolishment of taste ([11]; 500 μM rinse, at 2 hours after rinsing): 100 % of normal
recovery of taste perception faster in some subjects ([11]; 500 μM rinse, some subjects): about 20 minutes
ability to taste fully recovered after ([11]; after oral rinse): 1.5 to 3 h
recovery of the ability to taste began ([11]; after oral rinse): ≤ 60 min
taste blockade (sweet, sour, salty, bitter (Quinine and Praziquantel)) ([11]; topical oral rinse and expectoration, 4 people): completely blocked taste
negative side effects (oral numbing, tingling, strange oral sensations) ([11]; topical oral rinse in humans): did not cause numbness or any strange sensations
block of aroma or carbonation irritation ([11]; topical oral rinse, 4 people): did not block
